Source: paper PMC7607624 (Journal of nuclear medicine : official publication, Society …, 2013)

Assays:
[1] = design: species or system human; conditions: in vivo
[2] = design: species or system human; conditions: in vivo, iv
[3] = design: species or system human; conditions: in vivo; remark: listed apart in the source
[4] = human, in vivo
[5] = design: species or system human; conditions: in vivo; remark: listed apart in the source

## (18S,21S,24S,27S,30S)-27-(2-carboxyethyl)-21-(carboxymethyl)-30-((2S,3R,4R,5R,6S)-6-((2-(4-(3-[F18]fluoropropyl)-1H-1,2,3-triazol-1-yl)acetamido)methyl)-3,4,5-trihydroxytetrahydro-2H-pyran-2-carboxamido)-24-isopropyl-18-methyl-17,20,23,26,29-pentaoxo-4,7,10,13-tetraoxa-16,19,22,25,28-pentaazadotriacontane-1,32-dioic acid [18F-CP-18]
[1]
  parent tracer in urine: 21%
[2]; human
  clearance half-time of activity from blood pool / plasma: ~ 30 minutes
[2]
  percentage of plasma-borne activity in the form of 18F-CP-18: 99%
[3]
  Normalized number of disintegrations, Brain: 0.0089±0.0038 MBq-h/MBq administered
  Normalized number of disintegrations, Breasts: 0.015±0.0047 MBq-h/MBq administered
  Normalized number of disintegrations, Heart Contents: 0.026±0.0036 MBq-h/MBq administered
  Normalized number of disintegrations, Kidneys: 0.059±0.017 MBq-h/MBq administered
  Normalized number of disintegrations, Liver: 0.064±0.024 MBq-h/MBq administered
  Normalized number of disintegrations, Remainder: 0.82±0.14 MBq-h/MBq administered
  Normalized number of disintegrations, Spleen: 0.0090±0.0024 MBq-h/MBq administered
  Normalized number of disintegrations, Testes: 0.0057±0.0017 MBq-h/MBq administered
  Normalized number of disintegrations, Urinary Bladder Wall (1.0-hr): 0.29±0.033 MBq-h/MBq administered
  Normalized number of disintegrations, Urinary Bladder Wall (4.8-hr): 1.1±0.13 MBq-h/MBq administered
[4]
  bladder uptake (percent administered activity): 16-27%
  crossing of the blood-brain barrier: did not appreciably cross the blood-brain barrier
  kidney uptake (percent administered activity): 3.5-11%
  liver uptake (percent administered activity): 3.2-5.7%
  mean SUV, bladder: approximately 65
  mean SUV, heart: ~1.5
  mean SUV, kidneys: ~6
  mean SUV, liver: ~1.5
  renal system (kidneys and bladder together) uptake: 22-31%
[5]
  Estimated organ dose per unit administered activity, Brain: 2.4±0.6 μGy/MBq
  Estimated organ dose per unit administered activity, Breasts: 7.7±3.6 μGy/MBq
  Estimated organ dose per unit administered activity, Heart Wall: 10±0.8 μGy/MBq
  Estimated organ dose per unit administered activity, Kidneys: 39±10 μGy/MBq
  Estimated organ dose per unit administered activity, Thymus: 4.8±0.7 μGy/MBq
  Estimated organ dose per unit administered activity, Thyroid: 4.2±0.7 μGy/MBq
  adult female phantom doses, higher than adult male phantom: 20–34%
